Measured values as given in patent US6693081B2, “Bone stimulating factor” (Osteopharm Inc., priority 1995, dated 2004).
Entries after “also recorded” stand apart in the source; their conditions may differ.

What was measured:
male Sprague-Dawley rats [1] = test: Bone mineral apposition rate in rats, second set of experiments (NAP-2V subsequences); format: in vivo, rat; details: for Group arithmetic mean of bone apposition rate: about 25 nmol injected in right thigh, male Sprague-Dawley rats, N=3-4, control 1.08
Description: In a second set of experiments, twenty-four male Sprague-Dawley rats (Charles River Laboratory) were divided into six groups of four. Each of the first group, the control group, was injected in the right thigh with 200 μl of 0.1% acetic acid solution. The rats of the other groups were each injected in the right thigh with about 200 μl of a 0.1% acetic acid solution containing about 25 nmol of a chemically synthesized polypeptide as follows:
Immediately after injection of the polypeptide (control) solution, each rat was injected in the right gluteus maximus with 200 μl of a 1 M tetracycline hydrochloride (Sigma Chemical) solution. This dosage of tetracycline is about 16 mg per kg of animal body weight.
About 48 hours later, each rat was injected in the left gluteus maximus with the same dosage of tetracycline. Twenty-four hours later, the rats were sacrificed by CO2 narcosis and the right femur taken for bone mineral apposition rate determination. One rat died during the course of the experiments.
Immediately after dissection, a bone sample was fixed in 10% formaldehyde solution at pH 7.4. Later the same day, a 1:1 H2O-acetone solution was exchanged for the formaldehyde solution. This was exchanged twice the following day with acetone. This was exchanged the following day by a 1:1 acetone-Spurr's medium solution, which was exchanged later the same day with Spurr's medium. The following day each sample was embedded in a fresh change of Spurr's medium and cured at 60° C. for 24 hours, followed by curing at 80° C. for 24 hours.
Each cured block was cut into 400 μm thick sections using a Leitz saw microtome equipped with a diamond charged blade. The relatively thick sections were ground down between two ground glass plates pre-roughened with carborundum powder to a final thickness of about 10 μm, water being used as the grinding lubricant. The thin sections were dried and mounted unstained in Permount (Fisher).
Measurements were made using a Leitz scanning light microscope photometer MPV-CD magnifying the sections 16×, as described in international patent application No. PCT/CA94/00144.

[2] = system: female Sprague-Dawley rats; test: Bone mineral apposition rate in rats, third set of experiments (protected polypeptides); format: in vivo, rat; details: 100 nmoles; for Group arithmetic mean of bone apposition rate: female Sprague-Dawley rats, N=3, control 1.256; for Bone stimulatory activity (in words): rats
Description: The polypeptide having the sequence identified as SEQ ID NO:12 has two sites susceptible to cleavage by the peptidase plasmin, between the lysine-threonine and the lysine-asparagine residues, respectively. In a third set of experiments, nine female Sprague-Dawley rats (average weight, about 300 gm) were divided into three groups of three. Each of the first group, the control group, was injected with 400 μl of buffer solution, 50 mM sodium acetate adjusted to pH 4.5 followed immediately by 200 μl of a 1M tetracycline hydrochloride solution. The rats of the second group were each injected with 400 μl of buffer containing 100 nmoles of a chemically synthesized polypeptide having the sequence identified as SEQ ID NO:17 followed immediately by 200 μl of a 1 M tetracycline hydrochloride solution. The rats of the third group were each injected with 400 μl of buffer containing 100 nmoles of a chemically synthesized polypeptide having the sequence identified as SEQ ID NO:18 followed immediately by 200 μl of a 1M tetracycline hydrochloride solution.
After about 48 hours, a second dose of tetracycline hydrochloride was administered to each rat. After about another 24 hours, rats were sacrificed by carbon dioxide narcosis.
The right femur of each animal was taken and treated, as described above, and measurements made as described above.

[3] = system: female Sprague-Dawley rats; test: Dose dependence of bone mineral apposition rate in rats, fourth set of experiments; format: in vivo, rat; details: N=4, control 1.320
Description: In a fourth set of experiments, dose dependence of the measured bone mineral apposition rate on the amount of polypeptide having SEQ ID NO:18 was evaluated. Twenty-eight female Sprague-Dawley rats (average weight, about 300 gm) were divided into seven groups of four. The rats were treated as described in the previous set of experiments except that the amount of test polypeptide varied as follows: 25, 50, 100, 200, 400 and 800 nmoles.

male Sprague-Dawley rats [4] = test: Bone mineral apposition rate in rats, first experiments (NAP-2, NAP-2V); format: in vivo, rat; details: 25 nmol; for Bone stimulatory effect (in words): rats; for Group arithmetic mean of bone apposition rate: subcutaneous injection, male Sprague-Dawley rats, N=5, right femur lower metaphysis, control 0.99
Description: Experiments were conducted simultaneously on three groups of male Sprague-Dawley rats, there being five rats in each group. Each rat weighed between 250 and 350 g. Each rat of the first group was given, by subcutaneous injection into the left gluteus maximus region, 200 μl of a 1% aqueous acetic acid solution containing 25 nmol (about 191 μg) of NAP-2 (SEQ ID NO:1). Each rat of the second group was similarly given 200 μl of a 1% aqueous acetic acid solution containing 25 nmol (about 207 μg) of NAP-2V (SEQ ID NO:2). Each rat of the third group, the control group, was similarly given 200 μl of 1% acetic acid solution.
Immediately following administration of the test solution, 300 μl of an aqueous solution of tetracycline hydrochloride was administered intramuscularly into the right gluteus maximus, the concentration of tetracycline being sufficient to obtain a dosage of about 24 mg/kg of rat body weight. A second dose of tetracycline hydrochloride solution was administered about 48 hours after the first dose. The rats were sacrificed about 24 hours after administration of the second dose of tetracycline.
Sections of the lower metaphysis of the right femur were used for bone measuring the bone mineral apposition rate. Processing of the bone material for measurement has been described previously. See, for example, international patent application No. PCT/CA 94/00144 published under No. WO 94/20615 on Sep. 15, 1994.

Saos-2 = Saos-2 osteoblastic osteosarcoma cell line; U.S. Pat. No. 5,304,542; cited from earlier work
G-292 = G-292 osteoblastic osteosarcoma cell line; U.S. Pat. No. 5,304,542; cited from earlier work

With “NAP-2V-(1-26) (DSDLYAELRCMCIKTTSGIHPKNIQS; OTHER INFORMATION: Description of Artificial Sequence: Chemically synthesized polypeptide) [SEQ ID NO: 11]” the “Group arithmetic mean of bone apposition rate” value (“Group arithmetic mean” for short) (male Sprague-Dawley rats [1]) was 1.47 μm per day and the “Effect on observed bone (mineral) apposition rate (in words)” value (“Effect on observed bone” below) (male Sprague-Dawley rats [1]; about 25 nmol, rats) was “stimulate bone growth; also recorded: increase the observed bone apposition rate”.

With “NAP-2V-(10-26) (CMCIKTTSGIHPKNIQS; OTHER INFORMATION: Description of Artificial Sequence: Chemically synthesized polypeptide) [SEQ ID NO: 13, Cys Met Cys Ile Lys Thr Thr Ser Gly Ile His Pro Lys Asn Ile Gln Ser]” the “Group arithmetic mean” value (male Sprague-Dawley rats [1]) was 1.18 μm per day and the “Effect on observed bone” value (male Sprague-Dawley rats [1]; about 25 nmol, rats) was “small increase”.

With “NAP-2V-(11-26) (MCIKTTSQIHPKNIQS; OTHER INFORMATION: Description of Artificial Sequence: Chemically synthesized polypeptide) [SEQ ID NO: 14, Met Cys Ile Lys Thr Thr Ser Gln Ile His Pro Lys Asn Ile Gln Ser]” the “Group arithmetic mean” value (male Sprague-Dawley rats [1]) was 1.07 μm per day, the “Effect on observed bone” value (male Sprague-Dawley rats [1]; about 25 nmol, rats, listed as 14) was “do not appear to enhance bone growth” and the “Effect on observed bone” value (male Sprague-Dawley rats [1]; about 25 nmol, rats, listed as NAP-2V-(11-26)) was “no effect”.

For “NAP-2V-(12-26) (CIKTTSGIHPKNIQS; OTHER INFORMATION: Description of Artificial Sequence: Chemically synthesized polypeptide) [SEQ ID NO: 15, Cys Ile Lys Thr Thr Ser Gly Ile His Pro Lys Asn Ile Gln Ser]”, the “Group arithmetic mean” value (male Sprague-Dawley rats [1]) was 1.04 μm per day, the “Effect on observed bone” value (male Sprague-Dawley rats [1]; about 25 nmol, rats, listed as 15) was “do not appear to enhance bone growth” and the “Effect on observed bone” value (male Sprague-Dawley rats [1]; about 25 nmol, rats, listed as NAP-2V-(12-26)) was “no effect”.

With “NAP-2V-(13-26; gln^25→ glu^25) (IKTTSGIHPKNIES; OTHER INFORMATION: Description of Artificial Sequence: Chemically synthesized polypeptide) [SEQ ID NO: 12, Ile Lys Thr Thr Ser Gly Ile His Pro Lys Asn Ile Glu Ser]” the “Group arithmetic mean” value (male Sprague-Dawley rats [1]) was 1.70 μm per day and the “Effect on observed bone” value (male Sprague-Dawley rats [1]; about 25 nmol, rats; gln^25→glu^25)) was “stimulate bone growth; also recorded: greater activity; also recorded: increase the observed bone apposition rate”.

With “SEQ ID NO: 17: Protected NAP-2V-(13-26; gln^25→glu^25): Xaa Lys Thr Thr Ser Gly Ile His Pro Lys Asn Ile Glu Xaa; N-acetyl isoleucine, serinamide (Ac-IKTTSGIHPKNIES-NH2; also: protecting groups)” the “Group arithmetic mean” value [2] was 1.859 μm/d and the “Bone stimulatory activity (in words)” value [2] was “bond stimulatory activity”.

For “SEQ ID NO: 18: Protected NAP-2V-(15-22): Xaa Thr Ser Gly Ile His Pro Xaa; Xaa1 N-acetyl threonine, Xaa8 lysinamide (Ac-TTSGIHPK-NH2; also: protecting groups)”, the “Group arithmetic mean” value [2] was 2.406 μm/d, the “Bone stimulatory activity (in words)” value [2] was “greater bone stimulatory activity; also recorded: bond stimulatory activity” and the “Bone apposition rate, mean” value ([3]; 25 nmol) was 1.686 μm/day. For the same molecule, the “Bone apposition rate, mean” value ([3]; 50 nmol) was 1.753 μm/day, the “Bone apposition rate, mean” value ([3]; 100 nmol) was 1.907 μm/day and the “Bone apposition rate, mean” value ([3]; 200 nmol) was 2.209 μm/day. The “Bone apposition rate, mean” value ([3]; 400 nmol) was 2.123 μm/day and the “Bone apposition rate, mean” value ([3]; 800 nmol) was 2.139 μm/day.

B1: NAP-2V (peptide)
chain: DSDLYAELRCMCIKTTSGIHPKNIQSLEVIGKGTHCNQVEVIATLKDGRKICLDPDAPRIKKIVQKKLAGDESAD
modifications: OTHER INFORMATION: Description of Artificial Sequence: Chemically synthesized polypeptide
notes: variant of NAP-2, 75 amino acids, chemically synthesized polypeptide
With B1 the “Bone stimulatory effect (in words)” value (male Sprague-Dawley rats [4]) was “bone stimulatory effects”, the “Bone stimulatory effect (in words)” value (male Sprague-Dawley rats [4]; listed as SEQ ID NO:2) was “stimulate bone growth” and the “Group arithmetic mean” value (male Sprague-Dawley rats [4]) was 1.28 μm/d.

B2: NAP-2 (peptide)
chain: AELRCMCIKTTSGIHPKNIQSLEVIGKGTHCNQVEVIATLKDGRKICLDPDAPRIKKIVQKKLAGDESAD
modifications: OTHER INFORMATION: Description of Artificial Sequence: Chemically synthesized polypeptide
For B2, the “Bone stimulatory effect (in words)” value (male Sprague-Dawley rats [4]) was “bone stimulatory effects”, the “Bone stimulatory effect (in words)” value (male Sprague-Dawley rats [4]; listed as SEQ ID NO:1) was “stimulate bone growth” and the “Group arithmetic mean” value (male Sprague-Dawley rats [4]) was 1.23 μm/d.

B3: Platelet factor 4 (protein)
chain: EAEEDGDLQCLCVKTTSQVRPRHITSLEVIKAQPHCPTAQLIATLKNGRKICLDLEAPLYKKIIKKLLES
modifications: OTHER INFORMATION: Description of Artificial Sequence: Chemically synthesized polypeptide
notes: seventy amino acid polypeptide
For B3, the “Effect on cell proliferation (in words)” value (Saos-2) is given as “inhibit proliferation” and the “Effect on cell proliferation (in words)” value (G-292) is given as “inhibit proliferation”.
